The record followed here is patent US20240277860A1, “CAMPTOTHECIN PEPTIDE CONJUGATES” (priority 2019, published 2024).

Format in all cases: cell-based
Test [1] has as its system MDR(−) acute promyelocytic leukemia cells (HL-60). Nature of the test: In vitro potency, CellTiter-Glo growth inhibition, HL-60. The following applies: Homo sapiens, HL-60; camptothecin free drugs; 96 h, CellTiter-Glo; read-out: IC50 HL-60. On the procedure:
(§1) In vitro potency was assessed on multiple cancer cell lines. All cell lines were authenticated by STR profiling at IDEXX Bioresearch and cultured for no more than 2 months after resuscitation. Cells cultured in log-phase growth were seeded for 24 hours in 96-well plates containing 150 μl RPMI 1640 supplemented with 20% FBS. Serial dilutions of antibody-drug conjugates in cell culture media were prepared at 4× working concentrations, and 50 μl of each dilution was added to the 96-well plates. Following addition of test articles, cells were incubated with test articles for 4 days at 37° C. After 96 hours, growth inhibition was assessed by CellTiter-Glo® (Promega, Madison, WI) and luminescence was measured on a plate reader. The IC50 value, determined in triplicate, is defined here as the concentration that results in 50% reduction in cell growth relative to untreated controls.
(§2) In the following Tables IC50 values for ADCs and campthothecin free drugs are given in ng/mL and […] concentrations, respectively. Cell viability was determined by CellTiter-Glo staining after 96 h exposure to ADC. ND=Not Determined. Ag1 is an antibody targeting a ubiquitous and readily internalizable antigen on cancer cells.
In general terms: ATP-based viability assays read luminescence as a measure of living cells.

In test [2] the test system is MDR(+) acute promyelocytic leukemia cells (HL60/RV). Nature of the test: In vitro potency, CellTiter-Glo growth inhibition, HL60/RV. The following applies: Homo sapiens, HL-60; camptothecin free drugs; 96 h, CellTiter-Glo; read-out: IC50 HL60/RV. On the procedure: as §1, §2
Test [3] has as its system acute myeloid leukemia cells (MOLM13). Nature of the test: In vitro potency, CellTiter-Glo growth inhibition, MOLM-13. The following applies: Homo sapiens, MOLM-13; camptothecin free drugs; 96 h, CellTiter-Glo; read-out: IC50 MOLM-13. The protocol:
as §1, §2

Test [4] has as its system Hodgkin's lymphoma cells (L540cy). The test can be described thus: In vitro potency, CellTiter-Glo growth inhibition, L540cy. The following applies: camptothecin free drugs, 96 h, CellTiter-Glo, read-out: IC50 L540cy. The protocol: as §1, §2
In test [5] the test system is pancreatic cancer cells (BxPC3). The test can be described thus: In vitro potency, CellTiter-Glo growth inhibition, BxPC3. To be noted: Homo sapiens, BXPC-3; camptothecin free drugs; 96 h, CellTiter-Glo; read-out: IC50 BxPC3. On the procedure:
as §1, §2

Test [6] deals with renal carcinoma cells (786-O). Nature of the test: In vitro potency, CellTiter-Glo growth inhibition, 786-O. To be noted: Homo sapiens, 786-0; camptothecin free drugs; 96 h, CellTiter-Glo; read-out: IC50 786-O. On the procedure:
as §1, §2

Test [7] deals with B-lymphocyte cancer cells (SU-DHL-4). The test can be described thus: In vitro potency, CellTiter-Glo growth inhibition, SU-DHL-4. The following applies: Homo sapiens, SU-DHL-4; camptothecin free drugs; 96 h, CellTiter-Glo; read-out: IC50 SU-DHL-4. On the procedure: as §1, §2
Test [8] deals with B-lymphocyte cancer cells (U266). The test can be described thus: In vitro potency, CellTiter-Glo growth inhibition, U-266. To be noted: Homo sapiens, U-266; camptothecin free drugs; 96 h, CellTiter-Glo; read-out: IC50 U-266. The protocol: as §1, §2
The test system of test [9] is melanoma cells (SK-MEL-5). The test can be described thus: In vitro potency, CellTiter-Glo growth inhibition, SK-MEL-5. The following applies: Homo sapiens, SK-MEL-5; camptothecin free drugs; 96 h, CellTiter-Glo; read-out: IC50 SK-MEL-5. The protocol:
as §1, §2

The test system of test [10] is Burkitt's lymphoma cells (Ramos). The test can be described thus: In vitro potency, CellTiter-Glo growth inhibition, Ramos. To be noted: Homo sapiens, camptothecin free drugs, 96 h, CellTiter-Glo, read-out: IC50 Ramos. On the procedure: as §1, §2
Test [11] relates to multiple myeloma cells (MM.1R). Nature of the test: In vitro potency, CellTiter-Glo growth inhibition, MM.1R. To be noted: camptothecin free drugs, 96 h, CellTiter-Glo, read-out: IC50 MM.1R. The protocol:
as §1, §2

pIC50: −log10 of the molar value.

`CC[C@@]1(O)C(=O)OCc2c1cc1n(c2=O)Cc2c-1nc1cc3c(cc1c2CNC(=O)[C@@H](N)CCC(=O)O)OCO3` [Compound 3k]: the pIC50 is less than 6.00 in test [1]; less than 6.00 in test [2]; less than 6.00 in test [3]; 6.38 in test [4]; less than 6.00 in test [5]; 7.68 in test [6]. The pIC50 was 6.18 in [7]; less than 6.00 in [8]; less than 6.00 in [9]; 6.35 in [10]; 6.24 in test [11].
